Tests used:
Type in all cases: cell-based
human TLR9 = biological target: T1, human TLR9 (Homo sapiens, UniProt Q9NR96); test: TLR9 inhibition reporter assay (HEK-Blue, SEAP); details: HEK-Blue cells overexpressing human TLR9, ligand ODN2006 200 nM, 22 hour incubation
T1 construct: host or cells: HEK-Blue cells
T1 sequence (Q9NR96 26-1032): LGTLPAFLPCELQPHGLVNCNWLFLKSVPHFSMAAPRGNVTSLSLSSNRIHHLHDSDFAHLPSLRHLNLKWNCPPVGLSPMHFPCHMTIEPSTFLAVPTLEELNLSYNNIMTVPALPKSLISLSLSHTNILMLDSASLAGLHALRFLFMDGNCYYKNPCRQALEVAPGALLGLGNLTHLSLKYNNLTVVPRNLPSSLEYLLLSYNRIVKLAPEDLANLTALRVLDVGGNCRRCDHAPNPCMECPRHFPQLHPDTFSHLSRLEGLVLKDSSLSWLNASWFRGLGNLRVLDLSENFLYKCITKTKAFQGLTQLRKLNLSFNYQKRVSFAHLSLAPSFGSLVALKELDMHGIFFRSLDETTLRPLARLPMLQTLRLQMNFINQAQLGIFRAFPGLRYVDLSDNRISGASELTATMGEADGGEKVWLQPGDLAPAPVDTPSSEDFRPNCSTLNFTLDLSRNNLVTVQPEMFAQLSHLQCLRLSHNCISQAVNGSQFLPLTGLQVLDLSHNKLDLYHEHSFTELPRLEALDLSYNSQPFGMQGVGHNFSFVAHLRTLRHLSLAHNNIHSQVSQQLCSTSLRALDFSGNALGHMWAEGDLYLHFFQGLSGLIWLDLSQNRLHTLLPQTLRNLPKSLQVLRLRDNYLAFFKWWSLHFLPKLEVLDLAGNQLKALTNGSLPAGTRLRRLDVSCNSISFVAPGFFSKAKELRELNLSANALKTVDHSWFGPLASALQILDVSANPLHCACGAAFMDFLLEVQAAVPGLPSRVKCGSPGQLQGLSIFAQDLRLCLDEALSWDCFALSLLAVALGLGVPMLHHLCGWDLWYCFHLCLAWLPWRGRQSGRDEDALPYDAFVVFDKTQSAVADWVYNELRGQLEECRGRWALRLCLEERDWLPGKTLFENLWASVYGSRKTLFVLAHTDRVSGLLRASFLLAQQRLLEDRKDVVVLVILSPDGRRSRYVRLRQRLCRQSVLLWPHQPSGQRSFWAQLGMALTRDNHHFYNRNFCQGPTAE
Description: (§1) TLR7/8/9 Inhibition Reporter Assays
(§2) HEK-Blue™-cells (Invivogen) overexpressing human TLR7. TLR8 or TLR9 receptors were used for screening inhibitors of these receptors using an inducible SEAP (secreted embryonic alkaline phosphatase) reporter gene under the control of the IFN-β minimal promoter fused to five NF-κB and AP-1-binding sites. Cells are seeded into Greiner 384 well plates (15000 cells per well) that are pre dispensed (by ECHO) with testing compounds in DMSO to yield a final dose response concentration range of 0.85 nM-50 μM. After a 60 minute compound pre-treatment in 37 degree incubator, the cells are then stimulated with a TLR7 ligand (gardiquimod at a final concentration of 2.5 μM), TLR8 ligand (R848 at a final concentration of 14.25 μM) or TLR9 ligand (ODN2006 at a final concentration of 200 nM) to activate NF-κB and AP-1 which induce the production of SEAP. After a 22 hour incubation at 37° C., 5% CO2, SEAP levels are determined with the addition of HEK-Blue™ Detection reagent (Invivogen), a cell culture medium that allows for detection of SEAP, according to manufacturer's specifications. The percent inhibition is determined as the % reduction in the HEK-Blue signal present in […].

human TLR7 = biological target: T2, human TLR7 (Homo sapiens, UniProt Q9NYK1); test: TLR7 inhibition reporter assay (HEK-Blue, SEAP); details: HEK-Blue cells overexpressing human TLR7, ligand gardiquimod 2.5 μM, 22 hour incubation
T2 construct: host or cells: HEK-Blue cells
T2 sequence (Q9NYK1 27-1049): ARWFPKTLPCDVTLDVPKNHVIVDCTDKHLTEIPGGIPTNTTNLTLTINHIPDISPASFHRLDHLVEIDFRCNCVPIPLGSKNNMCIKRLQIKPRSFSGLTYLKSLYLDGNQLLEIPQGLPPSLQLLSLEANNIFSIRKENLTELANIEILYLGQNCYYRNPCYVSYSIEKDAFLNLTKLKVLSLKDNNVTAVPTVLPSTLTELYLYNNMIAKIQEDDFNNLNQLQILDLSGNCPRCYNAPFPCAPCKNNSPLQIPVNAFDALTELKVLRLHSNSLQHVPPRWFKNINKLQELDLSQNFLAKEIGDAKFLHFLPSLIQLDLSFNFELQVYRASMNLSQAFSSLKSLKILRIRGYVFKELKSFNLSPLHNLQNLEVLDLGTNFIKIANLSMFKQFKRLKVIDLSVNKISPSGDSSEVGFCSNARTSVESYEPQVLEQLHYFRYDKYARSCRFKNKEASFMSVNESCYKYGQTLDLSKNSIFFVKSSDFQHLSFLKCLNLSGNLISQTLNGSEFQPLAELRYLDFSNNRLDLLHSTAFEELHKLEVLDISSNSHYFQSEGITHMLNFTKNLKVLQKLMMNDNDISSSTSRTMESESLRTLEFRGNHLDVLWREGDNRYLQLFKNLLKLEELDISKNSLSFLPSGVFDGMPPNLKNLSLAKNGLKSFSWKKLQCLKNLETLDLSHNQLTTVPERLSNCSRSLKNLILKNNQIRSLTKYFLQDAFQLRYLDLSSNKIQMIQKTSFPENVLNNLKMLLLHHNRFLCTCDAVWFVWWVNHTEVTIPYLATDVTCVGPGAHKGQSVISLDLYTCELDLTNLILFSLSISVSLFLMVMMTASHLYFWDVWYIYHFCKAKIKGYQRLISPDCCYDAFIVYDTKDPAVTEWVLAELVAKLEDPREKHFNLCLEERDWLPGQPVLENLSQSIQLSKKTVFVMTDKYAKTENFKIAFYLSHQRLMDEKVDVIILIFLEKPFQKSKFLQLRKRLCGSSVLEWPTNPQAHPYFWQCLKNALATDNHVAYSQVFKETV
Description: as §1, §2

human TLR8 = biological target: T3, human TLR8 (Homo sapiens, UniProt Q9NR97); test: TLR8 inhibition reporter assay (HEK-Blue, SEAP); details: HEK-Blue cells overexpressing human TLR8, ligand R848 14.25 μM, 22 hour incubation
T3 construct: host or cells: HEK-Blue cells
T3 sequence (Q9NR97 27-1041): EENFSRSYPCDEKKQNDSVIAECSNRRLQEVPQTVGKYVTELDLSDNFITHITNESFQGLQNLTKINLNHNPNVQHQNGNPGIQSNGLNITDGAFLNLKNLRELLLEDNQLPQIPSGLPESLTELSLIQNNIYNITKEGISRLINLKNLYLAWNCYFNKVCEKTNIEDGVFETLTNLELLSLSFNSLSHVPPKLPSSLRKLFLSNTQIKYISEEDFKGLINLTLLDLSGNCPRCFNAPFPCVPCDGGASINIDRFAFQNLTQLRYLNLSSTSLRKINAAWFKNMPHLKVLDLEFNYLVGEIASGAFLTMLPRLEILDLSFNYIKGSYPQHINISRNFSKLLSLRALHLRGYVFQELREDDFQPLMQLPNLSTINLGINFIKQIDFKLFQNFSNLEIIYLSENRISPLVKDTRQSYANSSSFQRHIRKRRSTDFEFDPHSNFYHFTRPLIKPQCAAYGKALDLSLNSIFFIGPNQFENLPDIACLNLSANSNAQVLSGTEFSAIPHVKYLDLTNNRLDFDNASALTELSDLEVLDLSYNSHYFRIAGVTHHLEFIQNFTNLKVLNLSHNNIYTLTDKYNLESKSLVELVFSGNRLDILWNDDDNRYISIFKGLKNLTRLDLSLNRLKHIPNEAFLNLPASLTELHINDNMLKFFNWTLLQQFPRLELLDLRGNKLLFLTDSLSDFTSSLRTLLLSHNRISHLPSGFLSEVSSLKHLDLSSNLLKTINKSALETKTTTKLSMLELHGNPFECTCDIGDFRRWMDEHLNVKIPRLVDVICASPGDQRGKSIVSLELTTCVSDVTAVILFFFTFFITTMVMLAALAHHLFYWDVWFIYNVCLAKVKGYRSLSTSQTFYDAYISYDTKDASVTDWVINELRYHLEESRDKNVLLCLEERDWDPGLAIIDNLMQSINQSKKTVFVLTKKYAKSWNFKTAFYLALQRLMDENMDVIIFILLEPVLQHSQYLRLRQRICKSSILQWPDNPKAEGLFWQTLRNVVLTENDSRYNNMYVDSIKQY
Description: as §1, §2

Row | IC50 (human TLR9) [µM] | IC50 (human TLR7) [µM] | IC50 (human TLR8) [µM] | Structure (SMILES)
1 | 0.35 | 4.2 | 2.7 | CC(C)N1CCN(c2ccc(-c3cnc4nc(-c5ccc(S(C)(=O)=O)cc5)n(C)c4c3)cc2)CC1 [Example 49, 6-(4-(4-isopropylpiperazin-1-yl)phenyl)-1-methyl-2-(4-(methylsulfonyl)phenyl)-1H-imidazo[4,5-b]pyridine]
2 | 0.57 | > 50 | > 25 | CC(C)CN1CC2(C1)CN(c1ccc(-c3ccc4nc(-c5ccc(S(C)(=O)=O)cc5)n(C)c4n3)cc1)C2 [Example 66, 5-(4-(6-isobutyl-2,6-diazaspiro[3.3]heptan-2-yl)phenyl)-3-methyl-2-(4-(methylsulfonyl)phenyl)-3H-imidazo[4,5-b]pyridine]
3 | 0.026 | 1.3 | > 25 | Cc1cc(C2CCN(C3CCN(CC(C)(C)O)CC3)CC2)nc2c1nc(-c1ccc(S(C)(=O)=O)cc1)n2C [Example 22, 1-(4-(3,7-dimethyl-2-(4-(methylsulfonyl)phenyl)-3H-imidazo[4,5-b]pyridin-5-yl)-[1,4′-bipiperidin]-1′-yl)-2-methylpropan-2-ol]
4 | 0.93 | > 50 | > 50 | CC(C)N1CCN(c2ccc(-c3ccc4nc(-c5ccc(S(C)(=O)=O)cc5)n(C)c4n3)cc2)CC1 [Example 53, 5-(4-(4-isopropylpiperazin-1-yl)phenyl)-3-methyl-2-(4-(methylsulfonyl)phenyl)-3H-imidazo[4,5-b]pyridine]
5 | 0.54 | 1.6 | 15 | COc1ccc(-c2nc3c(C)cc(-c4ccc(N5CCC6(CC5)CN(C(C)C)C6)cc4)nc3n2C)cc1OC [Example 58, 2-(3,4-dimethoxyphenyl)-5-(4-(2-isopropyl-2,7-diazaspiro[3.5]nonan-7-yl)phenyl)-3,7-dimethyl-3H-imidazo[4,5-b]pyridine]
6 | 1.7 | > 50 | > 50 | Cc1cc(-c2ccc(N3CCN(CC(C)C)CC3)cc2)nc2c1nc(-c1ccc(S(C)(=O)=O)cc1)n2C [Example 8, 5-(4-(4-isobutylpiperazin-1-yl)phenyl)-3,7-dimethyl-2-(4-(methylsulfonyl)phenyl)-3H-imidazo[4,5-b]pyridine]
7 | 0.34 | 7.4 | > 50 | Cc1cc(C2CCN(C3CC4CCC(C3)N4C3CCOCC3)CC2)nc2c1nc(-c1ccc(S(C)(=O)=O)cc1)n2C (single isomer, unassigned) [Example 35, 3,7-dimethyl-2-(4-(methylsulfonyl)phenyl)-5-(1-(8-(tetrahydro-2H-pyran-4-yl)-8-azabicyclo[3.2.1]octan-3-yl)piperidin-4-yl)-3H-imidazo[4,5-b]pyridine]
8 | 0.13 | 8.1 | 27 | Cc1cc(-c2ccc(CN3CC4(C3)CN(C3CCC3)C4)cc2)nc2c1nc(-c1ccc(S(C)(=O)=O)cc1)n2C1CC1 [Example 1, 5-(4-((6-cyclobutyl-2,6-diazaspiro[3.3]heptan-2-yl)methyl)phenyl)-3-cyclopropyl-7-methyl-2-(4-(methylsulfonyl)phenyl)-3H-imidazo[4,5-b]pyridine]
9 | 0.16 | 6.4 | > 25 | CC(C)CN1CCC(N2CCC(c3cnc4nc(-c5ccc(S(C)(=O)=O)cc5)n(C)c4c3)CC2)CC1 [Example 15, 6-(1′-isobutyl-[1,4′-bipiperidin]-4-yl)-1-methyl-2-(4-(methylsulfonyl)phenyl)-1H-imidazo[4,5-b]pyridine]
10 | 0.22 | 1.3 | > 50 | COc1ccc(-c2nc3c(C)cc(C4CCN([C@H]5C[C@@H]6CN(C7CCOCC7)C[C@@H]6C5)CC4)nc3n2C)cc1OC [Example 40, 2-(3,4-dimethoxyphenyl)-3,7-dimethyl-5-(1-(2-(tetrahydro-2H-pyran-4-yl)octahydrocyclopenta[c]pyrrol-5-yl)piperidin-4-yl)-3H-imidazo[4,5-b]pyridine]
11 | 0.28 | 1.5 | 18 | COc1ccc(-c2nc3ncc(-c4ccc(N5CCN(C(C)C)CC5)cc4)cc3n2C)cc1OC [Example 48, 2-(3,4-dimethoxyphenyl)-6-(4-(4-isopropylpiperazin-1-yl)phenyl)-1-methyl-1H-imidazo[4,5-b]pyridine]

Source: US20250177363A1, “SUBSTITUTED IMIDAZOPYRIDINYL COMPOUNDS USEFUL AS INHIBITORS OF TLR9” (Bristol-Myers Squibb Company, priority 2022, published 2025)
